{
  "source": "patent US20250114380A1",
  "about": "“SMALL MOLECULE CD38 INHIBITORS AND METHODS OF USING SAME” (President and Fellows of Harvard College, priority 2011, published 2025)",
  "key": {"[1]": {"system": "murine oogonial stem cells (OSCs)", "assay": "NAD+/NADH levels in oogonial stem cells", "assay_type": "cell-based", "description": "(§1) Oogonial stem cells were isolated from dissociated ovaries using a FACS based sorting protocol to purify OSCs free of contaminating oocytes (White et al., in press). Cells were maintained in culture medium consisted of minimum essential medium α (MEMα), 10% FBS, 1 mM sodium pyruvate, 1 mM non-essential amino acids, 2 mM 1-glutamine, 0.1 mM β-mercaptoethanol (Sigma), 10 ng/ml-1 LIF (Millipore), 1× N-2 MAX Media Supplement (R&D) 10 ng/ml EGF (Epidermal growth factor, Recombinant human; Gibco), 40 ng/ml human GDNF (glial cell line-derived neurotrophic factor; R&D systems), 1 ng/ml human bFGF (basic fibroblast growth factor; Gibco)\n(§2) For all experiments 25,000 cells were plated in each well of a 24 well plate. Cells were allowed to attach for 24 h and then were treated with NMN (β-Nicotinamide mononucleotide; Sigma). Unless otherwise stated, NMN was added at for 12 and again for 6 hours before analysis (12+6 h).\nNAD+/NADH levels were measured according to the manufacturer's instructions using the NAD/NADH Quantitation Kit (Biovision)"}, "[2]": {"system": "murine OSCs", "assay": "Mitochondrial DNA copy number in OSCs", "assay_type": "cell-based", "description": "as §1, §2\nTotal cellular DNA was isolated from cells at the indicated time points using DNeasy Blood & Tissue Kit (Qiagen) according to the manufacturer's instructions. Mt DNA copy number was quantified using LightCycler 480 SYBR Green I Master (Roche Applied Science) using the following primers on a Roche 480 PCR machine."}, "[3]": {"system": "cultured murine oogonial stem cells", "assay": "Spontaneous oocyte formation assay", "assay_type": "cell-based", "details": "200 μM and 400 μM NMN", "description": "FIG. 9 depicts the increase in spontaneuous oocyte formation in cultured murine oogonial stem cells by nicotinamide mononucleotide. For assessment of spontaneous oocyte formation, each well of a 24-well plate was seeded with 25.000 OSCs, and the number of oocytes formed and released into the medium per well was assessed the second day after seeding as well as the designated time points after NMN treatment. Left bar=vehicle; middle bar=200 μM nicotinamide mononucleotide (NMN); right bar=400 μM NMN.\nFor assessment of spontaneous oocyte formation, each well of a 24-well plate was seeded with 25.000 OSCs, and the number of oocytes formed and released into the medium per well was assessed the second day after seeding as well as the designated time points after NMN treatment."}, "[4]": {"assay": "NAD+ levels in vivo in mice", "description": "Cardiac [NAD^+] declines with age and is reversed by NMN treatment (n=3; 200 mg/kg/d intraperitoneally for 1 week).\n(§3) FIG. 11A depicts the restorative effects of an NAD^+ precursor (NMN) on mitochondrial function in vivo."}, "[5]": {"assay": "Mitochondrial function in skeletal muscle in vivo", "details": "24-month old mice, 1 week of treatment, I.P.", "source_text": "as §3"}, "[6]": {"system": "C2C 2 cells", "assay": "Mitochondrial function in C2C 2 cells", "assay_type": "cell-based", "details": "SIRT1-dependent (sh Ctl vs sh SIRT1)"}, "[7]": {"system": "cellular NADase activity", "assay": "Cellular NADase activity", "assay_type": "cell-based", "source_text": "FIG. 2A depicts inhibition in cellular NADase activity by CD38 inhibitors Apigenin and Quercetin. In certain embodiments, the invention relates to small molecules capable of inhibiting CD38 activity at nanomolar or micromolar concentrations (FIG. 1 and FIG. 3). Preliminary cellular assays on some of these compounds have shown that they are able to inhibit cellular NADase activity resulting in increased cellular NAD levels (FIG. 2a and FIG. 2b)."}},
  "data": [
    {"smiles": "NC(=O)c1ccc[n+]([C@@H]2O[C@H](COP(=O)([O-])O)[C@@H](O)[C@H]2O)c1", "note": "[NMN, β-Nicotinamide mononucleotide]", "values": [
      {"measurement": "cellular NAD+", "setting": "[1]", "result": "increase"},
      {"measurement": "cellular NAD+/NADH", "setting": "[1]", "result": "increase"},
      {"measurement": "cellular NADH", "setting": "[1]", "result": "increase"},
      {"measurement": "mitochondrial DNA content", "setting": "[2]", "result": "increase"},
      {"measurement": "spontaneous oocyte formation", "setting": "[3]", "result": "increase"},
      {"measurement": "age-related decline of cardiac [NAD+]", "setting": "[4]; 200 mg/kg/d intraperitoneally for 1 week", "result": "reversed"},
      {"measurement": "rise of NAD+ levels in brain, heart and skeletal muscle", "setting": "[4]; intraperitoneal injection", "result": "30-100%"},
      {"measurement": "NAD+ levels in vivo", "setting": "[4]; young and old mice", "result": "raises NAD^+ levels"},
      {"measurement": "decline in mitochondrial function in skeletal muscle", "setting": "[5]", "result": "completely reversed"},
      {"measurement": "mitochondrial function", "setting": "[6]", "result": "increases mitochondrial function"}
    ]},
    {"smiles": "O=c1c(O)c(-c2ccc(O)c(O)c2)oc2cc(O)cc(O)c12", "note": "[Quercetin, 3,5,7,3′,4′-Pentahydroxyflavone]", "values": [
      {"measurement": "cellular NADase activity", "setting": "[7]", "result": "inhibition"}
    ]},
    {"smiles": "O=c1cc(-c2ccc(O)cc2)oc2cc(O)cc(O)c12", "note": "[Apigenin, 5,7,4′-Trihydroxyflavone]", "values": [
      {"measurement": "cellular NADase activity", "setting": "[7]", "result": "inhibition"}
    ]}
  ]
}
